# Data taken from patent US5672707A (priority 1991, dated 1997).
# Key:
# in vivo = details: for LD50 (mg/kg) by Kerber: intraperitoneal injection, Table 5
# Protocol: (§1) Psychoneurotropic activity of the declared compounds and their influence on learning and memory were observed using unbred male (18-20 g) mice and 180-200 g) rats, held at standard conditions (room temperature 21°-22° C., 12-hours lighting schedule, food and water ad libitum).
# Acute toxicity was studied by the method of Kerber with intra peritoneal drug injection.
# mice [1] = test: Psychotropic activity test: arecoline induced hyperkynesis; type: in vivo; details: intraperitoneally, dose 1/20 of LD
# rats = test: Passive avoidance test in normal rats, 50% acquisition; type: in vivo; details: for Increase of the number of correct trails (% to control). Passive avoidance test (rats): 0.1 mg/kg i.p. 20 min before training, piracetam 250 mg/kg 60 min before training
# Protocol: as §1
# The influence of drugs on reflex conditioning in rats was studied by the passive avoidance test in conditions of 50% acquisition. The effect of the compound was estimated by the increase of the relative number of learned animals with respect to that of control group. […] The other reference drug--noothropic agent piracetam--was given in the dose 250 mg/kg 60 min before training. Amnestic syndrome was stimulated by 20 days application of Sc at the daily dose of 1 mg/kg intraperitoneally. […] The passive avoidance test was performed within 24 hours after the last application of test preparations.
# mice [2] = test: Psychotropic activity test: motor activity; type: in vivo; details: intraperitoneally, dose 1/20 of LD
SMILES,LD50 (mg/kg) by Kerber (in vivo) [mg/kg],Increase of duration of arecoline induced hyperkynesis (% to control) (mice [1]),Increase of the number of correct trails (% to control). Passive avoidance test (rats) (rats),Motor activity increment (% to control) (mice [2]),Performance of normal rats in passive avoidance test (rats),"LD50 (in vivo; in vivo, ip, LD50 (mg/kg) by Kerber) [mg/kg]"
CC1(C)C=Cc2c(nc3ccccc3c2NCc2ccccc2)C1 [VIIf],125.0 ± 15.5,0 % to control,0 % to control,0 % to control,,
CC1(C)C=Cc2c(nc3ccccc3c2NCc2ccccc2)C1 [VIIg],200.0 ± 21.9,0 % to control,0 % to control,23 % to control,,
CC1(C)C=Cc2c(nc3ccccc3c2NCc2ccccc2)C1 [VIIh],116.7 ± 10.9,28 % to control,20 % to control,13 % to control,,
CC1(C)C=Cc2c(nc3ccccc3c2NCc2ccccc2)C1 [VIIm],112.5 ± 10.9,15 % to control,25 % to control,15 % to control,,
CC1(C)C=Cc2c(nc3ccccc3c2NCc2ccccc2)C1 [VIIn],125.0 ± 10.9,46 % to control,40 % to control,11 % to control,,
CC1(C)C=Cc2c(nc3ccccc3c2NCc2ccccc2)C1 [VIIo],62.5 ± 7.7,0 % to control,40 % to control,16 % to control,statistically significantly improved performance of normal rats,
CC1(C)C=Cc2c(nc3ccccc3c2NCc2ccccc2)C1 [VIIp],,21 % to control,45 % to control,33 % to control,statistically significantly improved performance of normal rats,75 ± 3.8
CC1(C)C=Cc2c(nc3ccccc3c2NCc2ccccc2)C1 [VIIq],73.3 ± 4.4,30 % to control,45 % to control,20 % to control,statistically significantly improved performance of normal rats,
CC1(C)C=Cc2c(nc3ccccc3c2NCc2ccccc2)C1 [VIIr],69.5 ± 5.6,0 % to control,45 % to control,0 % to control,statistically significantly improved performance of normal rats,
CC1(C)C=Cc2c(nc3ccccc3c2NCc2ccccc2)C1 [VIIu],83.8 ± 5.6,12 % to control,0 % to control,15 % to control,,
CCCCNc1c2c(nc3ccccc13)CC(C)(C)CC2=O [Vs],165.8 ± 14.8,0 % to control,15 % to control,0 % to control,,
CCCCNc1c2c(nc3ccccc13)CC(C)(C)CC2=O [Vt],210.0 ± 9.8,0 % to control,0 % to control,0 % to control,,
CCCCNc1c2c(nc3ccccc13)CC(C)(C)CC2=O [Vx],121.7 ± 15.5,,25 % to control,,,
